Assay results: patent publication US8293917B2, “Pyrazole compounds as CCR1 antagonists” (Boehringer Ingelheim International GmbH, priority 2008, dated 2012)

The compounds below were run against T1, CCR1 (Homo sapiens, UniProt P32246) (assay: functional cellular assay measuring calcium flux in response to MIP1α in CCR1-transfected cells (Method A or Method B)). Conditions: cells stably expressing recombinant CCR1 and G-alpha-16; MIP-1alpha added at EC80; method (A: FLIPR TETRA, B: FDSS6000) not stated per compound.
T1 construct: host or cells: non-adherent cells
T1 sequence (P32246 1-355): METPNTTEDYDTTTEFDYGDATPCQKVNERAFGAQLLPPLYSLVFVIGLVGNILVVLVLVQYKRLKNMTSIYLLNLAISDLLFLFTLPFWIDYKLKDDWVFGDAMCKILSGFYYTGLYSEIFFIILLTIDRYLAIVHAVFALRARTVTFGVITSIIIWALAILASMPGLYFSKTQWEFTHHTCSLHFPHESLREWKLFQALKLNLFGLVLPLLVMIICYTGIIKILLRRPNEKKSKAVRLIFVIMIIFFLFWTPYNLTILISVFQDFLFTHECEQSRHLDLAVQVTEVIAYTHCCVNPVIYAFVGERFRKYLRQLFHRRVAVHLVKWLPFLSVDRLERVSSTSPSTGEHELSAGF
Format: cell-based
Description: Compounds are assessed for the ability to block the interaction of CCR1 and its ligands in a functional cellular assay measuring calcium flux in response to MIP1α in CCR1-transfected cells.
Method A: Non-adherent cells purchased from Chemicon Corporation (HTS005C), stably expressing recombinant CCR1 and G-alpha-16 are grown in RPMI 1640 medium (Mediatech 10-080-CM) supplemented with 10% heat-inactivated FBS, 0.4 mg/mL Geneticin and penicillin/streptomycin. On the day of the assay, the cells are transferred to a beaker and dye-loaded in bulk using a Fluo-4 NW Calcium Assay Kit with probenecid (Invitrogen F36205) at 0.8E6 cells/mL for 1 hour at room temperature. After 1 hour, they are seeded in a 384-well tissue culture-treated plate at a density of 20,000 cells/well. Appropriately diluted test compound is added to the well to achieve a top concentration of 3,000 nM (diluted 3-fold with 10 doses total). The final concentration of DMSO is 1%. The buffer is HBSS (Invitrogen 14025) with 20 mM HEPES at pH 7.4. The cells are allowed to incubate 1 hour in the dark at room temperature. The plates are transferred to the FLIPR TETRA where MIP-1alpha in 1% BSA is added at the EC80 final concentration. Wells +/−MIP-1alpha containing diluted DMSO instead of compound serve as the controls. Intracellular calcium flux is recorded on the FLIPR TETRA, using excitation at 470/495 nm and emission at 515/575 nm. Data are analyzed using Activity Base software.
Method B: Non-adherent cells purchased from Chemicon Corporation (HTS005C), stably expressing recombinant CCR1 and G-alpha-16 are grown in RPMI 1640 medium (Mediatech 10-080-CM) supplemented with 10% FBS, 0.4 mg/mL Geneticin and penicillin/streptomycin. On the day of the assay, the cells are loaded with Calcium 4 dye (Molecular Devices R7448) with Probenecid (Invitrogen P346400) at 8E5 cells/mL for 1 hour at room temperature. After 1 hour, they are seeded in a 384-well tissue culture-treated plate at a density of 20,000 cells/well. Appropriately diluted test compound is added to the well to achieve a top concentration of 3,000 nM (diluted 4-fold with 10 doses total). The final concentration of DMSO is 1%. The buffer is HBSS (Invitrogen 14025) with 20 mM HEPES at pH 7.4. The cells incubate 30 minutes at 37 C and then 30 minutes at room temperature. The plates are transferred to the HAMAMATSU FDSS6000 where MIP-1alpha in 1% BSA is added at the EC80 final concentration. All plates must be read within 4 hours of the start of dye-loading. Wells +/−MIP-1alpha containing diluted DMSO instead of compound serve as the controls. Data are analyzed using Activity Base software.
Compound `CCC[C@H](NC(=O)c1cnn(-c2ccc(Cl)cc2)c1C)c1ccc(S(C)(=O)=O)nc1` (stereo in doubt) [1-(4-Chloro-phenyl)-5-methyl-1H-pyrazole-4-carboxylic acid [1-(6-methanesulfonyl-pyridin-3-yl)-butyl]-amide] has an IC50 of 35 nM. Compound `Cc1c(C(=O)N[C@@H](C)c2cccc3ccccc23)cnn1-c1ccc(Cl)c(Cl)c1` [1-(3,4-Dichloro-phenyl)-5-methyl-1H-pyrazole-4-carboxylic acid ((S)-1-naphthalen-1-yl-ethyl)-amide] has an IC50 of 54 nM. `CCCC(NC(=O)c1cnn(-c2ccc(Cl)c(Cl)c2)c1C)c1ccnc(Br)c1` (stereo not shown) [1-(3,4-Dichloro-phenyl)-5-methyl-1H-pyrazole-4-carboxylic acid [1-(2-bromo-pyridin-4-yl)-butyl]-amide] was tested, and the IC50 was 0.6 nM. `CCCC(NC(=O)c1cnn(-c2ccc(Cl)c(Cl)c2)c1C)c1ccnc(S(C)(=O)=O)c1` (stereo not shown) [1-(3,4-Dichloro-phenyl)-5-methyl-1H-pyrazole-4-carboxylic acid [1-(2-methanesulfonyl-pyridin-4-yl)-butyl]-amide] was tested, and the IC50 was 0.3 nM. Work on `CCCC(NC(=O)c1cnn(-c2ccc(Cl)c(Cl)c2)c1C)c1cncc(S(C)(=O)=O)c1` (stereo not shown) [1-(3,4-Dichloro-phenyl)-5-methyl-1H-pyrazole-4-carboxylic acid [1-(5-methanesulfonyl-pyridin-3-yl)-butyl]-amide] yielded an IC50 of 1 nM. Compound `CCCC(NC(=O)c1cnn(-c2ccc(Cl)c(Cl)c2)c1C)c1ccc(S(C)(=O)=O)nc1` (stereo not shown) [1-(3,4-Dichloro-phenyl)-5-methyl-1H-pyrazole-4-carboxylic acid [1-(6-methanesulfonyl-pyridin-3-yl)-butyl]-amide] has an IC50 of 5.3 nM. Compound `C=CCC[C@H](NC(=O)c1cnn(-c2ccc(Cl)c(Cl)c2)c1C)c1cccc(Br)c1` [1-(3,4-Dichloro-phenyl)-5-methyl-1H-pyrazole-4-carboxylic acid [(S)-1-(3-bromo-phenyl)-pent-4-enyl]-amide] has an IC50 of 41 nM. `CC[C@H](NC(=O)c1cnn(-c2ccc(Cl)c(Cl)c2)c1C)c1cccc(Br)c1` [1-(3,4-Dichloro-phenyl)-5-methyl-1H-pyrazole-4-carboxylic acid [(S)-1-(3-bromo-phenyl)-propyl]-amide] gave an IC50 of 16 nM. `Cc1c(C(=O)N[C@@H](C)c2ccc(F)c(C(F)(F)F)c2)cnn1-c1ccc(Cl)c(Cl)c1` [1-(3,4-Dichloro-phenyl)-5-methyl-1H-pyrazole-4-carboxylic acid [(S)-1-(4-fluoro-3-trifluoromethyl-phenyl)-ethyl]-amide] gave an IC50 of 28 nM. In the case of `CCCC(NC(=O)c1cnn(-c2ccc(F)c(Cl)c2)c1C)c1cncc(S(C)(=O)=O)c1` (stereo not shown) [1-(3-Chloro-4-fluoro-phenyl)-5-methyl-1H-pyrazole-4-carboxylic acid [1-(5-methanesulfonyl-pyridin-3-yl)-butyl]-amide], the IC50 is reported as 5.9 nM. Work on `CCCC(NC(=O)c1cnn(-c2ccc(F)c(Cl)c2)c1C)c1ccc(S(C)(=O)=O)nc1` (stereo not shown) [1-(3-Chloro-4-fluoro-phenyl)-5-methyl-1H-pyrazole-4-carboxylic acid [1-(6-methanesulfonyl-pyridin-3-yl)-butyl]-amide] yielded an IC50 of 71 nM. Work on `CCCC(NC(=O)c1cnn(-c2ccc(Br)cc2)c1C)c1cncc(S(C)(=O)=O)c1` (stereo not shown) [1-(4-Bromo-phenyl)-5-methyl-1H-pyrazole-4-carboxylic acid [1-(5-methanesulfonyl-pyridin-3-yl)-butyl]-amide] yielded an IC50 of 9.3 nM. For `CCCC(NC(=O)c1cnn(-c2ccc(Cl)c(F)c2)c1C)c1cncc(S(C)(=O)=O)c1` (stereo not shown) [1-(4-Chloro-3-fluoro-phenyl)-5-methyl-1H-pyrazole-4-carboxylic acid [1-(5-methanesulfonyl-pyridin-3-yl)-butyl]-amide], the IC50 was 37 nM. Compound `CCCC(NC(=O)c1cnn(-c2ccc(Cl)c(F)c2)c1C)c1ccc(S(C)(=O)=O)nc1` (stereo not shown) [1-(4-Chloro-3-fluoro-phenyl)-5-methyl-1H-pyrazole-4-carboxylic acid [1-(6-methanesulfonyl-pyridin-3-yl)-butyl]-amide] has an IC50 of 91 nM. For `CCC[C@H](NC(=O)c1cnn(-c2ccc(Cl)cc2)c1CO)c1cccc(Br)c1` [1-(4-Chloro-phenyl)-5-hydroxymethyl-1H-pyrazole-4-carboxylic acid [(S)-1-(3-bromo-phenyl)-butyl]-amide], the IC50 was 16 nM. For `CCC[C@H](NC(=O)c1cnn(-c2ccc(Cl)cc2)c1CO)c1cccc(C(F)(F)F)c1` [1-(4-Chloro-phenyl)-5-hydroxymethyl-1H-pyrazole-4-carboxylic acid [(S)-1-(3-trifluoromethyl-phenyl)-butyl]-amide], the IC50 was 6.5 nM. Work on `CCCC(NC(=O)c1cnn(-c2ccc(Cl)cc2)c1C)c1ccnc(Br)c1` (stereo not shown) [1-(4-Chloro-phenyl)-5-methyl-1H-pyrazole-4-carboxylic acid [1-(2-bromo-pyridin-4-yl)-butyl]-amide] yielded an IC50 of 1.1 nM. With `CCCC(NC(=O)c1cnn(-c2ccc(Cl)cc2)c1C)c1ccnc(S(=O)(=O)C2CC2)c1` (stereo not shown) [1-(4-Chloro-phenyl)-5-methyl-1H-pyrazole-4-carboxylic acid [1-(2-cyclopropanesulfonyl-pyridin-4-yl)-butyl]-amide] the IC50 was 12 nM. In the case of `CCCC(NC(=O)c1cnn(-c2ccc(Cl)cc2)c1C)c1ccnc(S(=O)(=O)N(C)C)c1` (stereo not shown) [1-(4-Chloro-phenyl)-5-methyl-1H-pyrazole-4-carboxylic acid [1-(2-dimethylsulfamoyl-pyridin-4-yl)-butyl]-amide], the IC50 is reported as 4.5 nM. With `CCCC(NC(=O)c1cnn(-c2ccc(Cl)cc2)c1C)c1ccnc(S(=O)(=O)CC)c1` (stereo not shown) [1-(4-Chloro-phenyl)-5-methyl-1H-pyrazole-4-carboxylic acid [1-(2-ethanesulfonyl-pyridin-4-yl)-butyl]-amide] the IC50 was 5.7 nM. `CCCC(NC(=O)c1cnn(-c2ccc(Cl)cc2)c1C)c1ccnc(S(C)(=O)=O)c1` (stereo not shown) [1-(4-Chloro-phenyl)-5-methyl-1H-pyrazole-4-carboxylic acid [1-(2-methanesulfonyl-pyridin-4-yl)-butyl]-amide] was tested, and the IC50 was 2.3 nM. In the case of `CCCC(NC(=O)c1cnn(-c2ccc(Cl)cc2)c1C)c1ccnc(S(=O)(=O)NC)c1` (stereo not shown) [1-(4-Chloro-phenyl)-5-methyl-1H-pyrazole-4-carboxylic acid [1-(2-methylsulfamoyl-pyridin-4-yl)-butyl]-amide], the IC50 is reported as 2.9 nM. `CCCC(NC(=O)c1cnn(-c2ccc(Cl)cc2)c1C)c1ccnc(S(N)(=O)=O)c1` (stereo not shown) [1-(4-Chloro-phenyl)-5-methyl-1H-pyrazole-4-carboxylic acid [1-(2-sulfamoyl-pyridin-4-yl)-butyl]-amide] was tested, and the IC50 was 51 nM. `CCCC(NC(=O)c1cnn(-c2ccc(Cl)cc2)c1C)c1cncc(Br)c1` (stereo not shown) [1-(4-Chloro-phenyl)-5-methyl-1H-pyrazole-4-carboxylic acid [1-(5-bromo-pyridin-3-yl)-butyl]-amide] showed an IC50 of 4.1 nM. In the case of `CCCC(NC(=O)c1cnn(-c2ccc(Cl)cc2)c1C)c1cncc(S(=O)(=O)C2CC2)c1` (stereo not shown) [1-(4-Chloro-phenyl)-5-methyl-1H-pyrazole-4-carboxylic acid [1-(5-cyclopropanesulfonyl-pyridin-3-yl)-butyl]-amide], the IC50 is reported as 85 nM. `CCCC(NC(=O)c1cnn(-c2ccc(Cl)cc2)c1C)c1cncc(S(=O)(=O)N(C)C)c1` (stereo not shown) [1-(4-Chloro-phenyl)-5-methyl-1H-pyrazole-4-carboxylic acid [1-(5-dimethylsulfamoyl-pyridin-3-yl)-butyl]-amide] was tested, and the IC50 was 4.9 nM. For `CCCC(NC(=O)c1cnn(-c2ccc(Cl)cc2)c1C)c1cncc(S(=O)(=O)CC)c1` (stereo not shown) [1-(4-Chloro-phenyl)-5-methyl-1H-pyrazole-4-carboxylic acid [1-(5-ethanesulfonyl-pyridin-3-yl)-butyl]-amide], the IC50 was 94 nM. Compound `CCCC(NC(=O)c1cnn(-c2ccc(Cl)cc2)c1C)c1cncc(S(C)(=O)=O)c1` (stereo not shown) [1-(4-Chloro-phenyl)-5-methyl-1H-pyrazole-4-carboxylic acid [1-(5-methanesulfonyl-pyridin-3-yl)-butyl]-amide] has an IC50 of 15 nM.
